From ChEMBL document CHEMBL5465560, “Selectivity Literature for EUbOPEN Chemogenomic Library” (2024)
Values belong to the compound of their own block, whether it stands above or below them.

Assays:
[1] = target: Hepatocyte growth factor-like protein (Homo sapiens) (UniProt P26927); assay: Selectivity interaction (Ambit KINOMEscan and KiNATiv profiling in Jurkat cells) EUB0000090b MST1; assay type: cell-based; conditions: at 1 µM
[2] = target: Beta-3 adrenergic receptor (Homo sapiens) (UniProt P13945); assay: Selectivity interaction (GPCR panel (PDSP screen)) EUB0001079a ADRB3; conditions: at 10 µM
Beta-3 adrenergic receptor (Homo sapiens), sequence (P13945 whole entry, looked up): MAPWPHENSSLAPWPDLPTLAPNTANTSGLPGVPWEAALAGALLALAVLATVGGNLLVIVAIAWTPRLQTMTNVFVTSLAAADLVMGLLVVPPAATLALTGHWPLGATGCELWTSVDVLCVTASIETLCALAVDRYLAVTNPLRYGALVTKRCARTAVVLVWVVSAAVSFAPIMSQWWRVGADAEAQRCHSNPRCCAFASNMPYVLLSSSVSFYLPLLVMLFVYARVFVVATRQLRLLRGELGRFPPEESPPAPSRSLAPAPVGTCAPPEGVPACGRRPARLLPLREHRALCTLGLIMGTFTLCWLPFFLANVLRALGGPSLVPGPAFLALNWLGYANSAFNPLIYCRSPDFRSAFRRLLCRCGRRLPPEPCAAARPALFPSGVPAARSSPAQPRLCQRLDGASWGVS

[3] = target: Ribosomal protein S6 kinase beta-1 (Homo sapiens, UniProt P23443); assay: Selectivity interaction (KinomeScan (DiscoverX)) EUB0000045b RPS6KB1
Ribosomal protein S6 kinase beta-1, sequence (P23443 whole entry, looked up): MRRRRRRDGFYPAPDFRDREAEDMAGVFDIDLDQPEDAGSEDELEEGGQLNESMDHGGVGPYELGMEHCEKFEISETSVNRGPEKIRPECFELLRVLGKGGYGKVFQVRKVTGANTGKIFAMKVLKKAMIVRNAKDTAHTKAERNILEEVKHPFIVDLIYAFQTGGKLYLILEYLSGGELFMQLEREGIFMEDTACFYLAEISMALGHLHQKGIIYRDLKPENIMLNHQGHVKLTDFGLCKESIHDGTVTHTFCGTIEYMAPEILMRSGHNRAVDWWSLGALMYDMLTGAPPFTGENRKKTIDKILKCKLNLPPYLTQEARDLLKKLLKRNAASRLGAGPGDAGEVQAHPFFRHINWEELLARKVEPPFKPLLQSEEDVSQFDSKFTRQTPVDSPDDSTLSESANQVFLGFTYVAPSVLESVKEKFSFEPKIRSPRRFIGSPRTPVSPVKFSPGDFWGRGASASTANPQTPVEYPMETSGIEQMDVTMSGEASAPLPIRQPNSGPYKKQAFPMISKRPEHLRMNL

[4] = target: T1, Dual specificity mitogen-activated protein kinase kinase 6 (Homo sapiens) (UniProt P52564); assay: Selectivity interaction (Upstate Kinase Profiler service (Millipore)) EUB0000056c MAP2K6; conditions: at 1 µM
T1 sequence (whole entry): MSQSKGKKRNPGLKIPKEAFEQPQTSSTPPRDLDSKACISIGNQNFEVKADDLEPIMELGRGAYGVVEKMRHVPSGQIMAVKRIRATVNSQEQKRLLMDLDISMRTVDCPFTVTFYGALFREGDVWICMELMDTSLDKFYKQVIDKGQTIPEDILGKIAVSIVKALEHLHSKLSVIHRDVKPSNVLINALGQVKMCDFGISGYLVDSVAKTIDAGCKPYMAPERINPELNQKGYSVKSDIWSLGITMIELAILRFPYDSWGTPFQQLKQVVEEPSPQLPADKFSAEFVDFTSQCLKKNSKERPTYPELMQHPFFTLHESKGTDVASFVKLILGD

[5] = test system: Tyrosine-protein kinase ABL1 (Homo sapiens), P00519 [Q252H]; conditions: at 10 µM
[6] = target: T2, Mitogen-activated protein kinase kinase kinase kinase 2 (Homo sapiens) (UniProt Q12851); assay: Selectivity interaction (Kinase panel (Invitrogen)) EUB0000639a MAP4K2; conditions: at 200 nM
T2 sequence (whole entry): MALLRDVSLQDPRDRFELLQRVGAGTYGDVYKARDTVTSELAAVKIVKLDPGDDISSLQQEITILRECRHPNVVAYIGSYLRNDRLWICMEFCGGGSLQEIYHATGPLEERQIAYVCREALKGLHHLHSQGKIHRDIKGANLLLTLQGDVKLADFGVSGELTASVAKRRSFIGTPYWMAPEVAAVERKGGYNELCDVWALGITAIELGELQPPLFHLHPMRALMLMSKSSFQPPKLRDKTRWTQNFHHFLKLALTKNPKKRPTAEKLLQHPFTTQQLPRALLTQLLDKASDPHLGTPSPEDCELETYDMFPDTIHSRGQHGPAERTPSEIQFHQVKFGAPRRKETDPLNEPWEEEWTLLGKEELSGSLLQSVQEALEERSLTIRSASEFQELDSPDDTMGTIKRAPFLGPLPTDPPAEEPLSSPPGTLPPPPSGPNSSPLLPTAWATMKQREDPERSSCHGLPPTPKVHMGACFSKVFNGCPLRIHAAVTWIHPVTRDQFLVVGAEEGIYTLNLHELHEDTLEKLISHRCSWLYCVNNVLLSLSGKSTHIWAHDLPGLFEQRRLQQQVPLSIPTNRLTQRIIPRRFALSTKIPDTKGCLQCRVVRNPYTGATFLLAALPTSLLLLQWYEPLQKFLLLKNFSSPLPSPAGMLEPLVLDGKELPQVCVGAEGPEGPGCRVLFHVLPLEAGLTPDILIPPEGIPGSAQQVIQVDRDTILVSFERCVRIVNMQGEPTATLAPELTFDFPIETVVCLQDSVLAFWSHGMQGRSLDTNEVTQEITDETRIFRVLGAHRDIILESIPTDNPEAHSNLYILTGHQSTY

[7] = target: T3, Serine/threonine-protein kinase ULK3 (Homo sapiens) (UniProt Q6PHR2); assay: Selectivity interaction (KinomeScan (DiscoverX)) EUB0000092b ULK3; conditions: at 10 µM
T3 sequence (whole entry): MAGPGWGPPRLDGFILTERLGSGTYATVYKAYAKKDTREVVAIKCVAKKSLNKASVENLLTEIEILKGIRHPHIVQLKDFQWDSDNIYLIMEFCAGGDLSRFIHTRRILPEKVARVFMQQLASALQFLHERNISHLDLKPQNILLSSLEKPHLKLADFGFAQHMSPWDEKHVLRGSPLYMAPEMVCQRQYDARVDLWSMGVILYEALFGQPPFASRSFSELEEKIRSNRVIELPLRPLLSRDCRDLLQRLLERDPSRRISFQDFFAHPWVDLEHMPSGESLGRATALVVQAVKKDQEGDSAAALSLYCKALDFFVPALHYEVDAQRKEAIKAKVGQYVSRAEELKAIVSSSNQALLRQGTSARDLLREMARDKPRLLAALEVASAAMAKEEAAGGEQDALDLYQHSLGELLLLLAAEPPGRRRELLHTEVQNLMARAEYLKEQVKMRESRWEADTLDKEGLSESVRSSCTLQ

[8] = target: T4, Inhibitor of nuclear factor kappa-B kinase subunit alpha (Homo sapiens) (UniProt O15111); assay: Selectivity interaction (Adapta Assay) EUB0001632a CHUK; conditions: at 10 µM
T4 sequence (whole entry): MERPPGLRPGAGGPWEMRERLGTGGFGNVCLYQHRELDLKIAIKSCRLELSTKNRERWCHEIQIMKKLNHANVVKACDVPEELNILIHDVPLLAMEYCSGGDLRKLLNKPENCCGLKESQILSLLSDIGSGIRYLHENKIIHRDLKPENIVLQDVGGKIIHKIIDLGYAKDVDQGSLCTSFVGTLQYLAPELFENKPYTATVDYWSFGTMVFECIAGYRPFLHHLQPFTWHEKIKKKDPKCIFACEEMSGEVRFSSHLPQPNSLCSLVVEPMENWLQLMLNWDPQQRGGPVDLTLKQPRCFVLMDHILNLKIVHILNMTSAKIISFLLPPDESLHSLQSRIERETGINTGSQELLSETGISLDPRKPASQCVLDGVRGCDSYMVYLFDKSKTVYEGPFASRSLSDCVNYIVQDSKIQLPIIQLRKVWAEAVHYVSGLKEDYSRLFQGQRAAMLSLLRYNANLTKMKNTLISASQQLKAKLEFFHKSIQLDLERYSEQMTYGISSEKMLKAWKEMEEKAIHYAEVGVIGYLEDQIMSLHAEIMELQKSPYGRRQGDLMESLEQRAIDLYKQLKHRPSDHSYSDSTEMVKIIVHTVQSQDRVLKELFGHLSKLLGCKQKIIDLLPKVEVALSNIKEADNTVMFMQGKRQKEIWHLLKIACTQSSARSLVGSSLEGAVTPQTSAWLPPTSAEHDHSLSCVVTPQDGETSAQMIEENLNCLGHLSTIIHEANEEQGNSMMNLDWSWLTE

Structure (SMILES): CN(C)C/C=C/C(=O)Nc1ccc(C(=O)N2CCCC(Nc3ncc(Cl)c(-c4c[nH]c5ccccc45)n3)C2)cc1 (centres undefined)
% of control [1]: 78%

Structure (SMILES): Nc1cnc(N2CCc3cc(S(=O)(=O)Nc4c(F)cc(Cl)cc4F)cc(N4CCCC4=O)c32)nc1 [TP-020n]
% of inhibition [2]: -2.69%

Structure (SMILES): C=CC(=O)Nc1cc(-n2c(=O)ccc3cnc4ccc(-c5ccc(NS(C)(=O)=O)cc5)cc4c32)ccc1C
% of control ([3]; at 1 µM): 100%
% of control ([3]; at 10 µM): 76%

% of inhibition [4]: 2%
Structure (SMILES): Cc1ccc(-c2ccc3c(ccc4sc5c(c43)NC[C@@H](C)NC5=O)n2)cn1

Structure (SMILES): Cc1cc([C@@H](C)Nc2ccccc2C(=O)O)c2nc(N3CCOCC3)cc(=O)n2c1 [AZD-6482]
% of control [5]: 100%

% of inhibition [6]: 2.66%
Structure (SMILES): CC[C@@H]1[C@H](F)C(=O)N[C@@H]1COc1nccc2cc(C(N)=O)c(OC)cc12 [ZIMLOVISERTIB]

Structure (SMILES): CCC(=O)N1CCN(c2ccc(-n3c(=O)ccc4cnc5ccc(-c6cnc7ccccc7c6)cc5c43)cc2C(F)(F)F)CC1
% of control [7]: 100%

% of inhibition [8]: 13.7%
Structure (SMILES): Cn1cc(-n2cnc3c(NCc4nc5cc(Cl)c(Cl)cc5[nH]4)nc(N4CCOCC4)nc32)cn1
